Laboratory results from PubChem BioAssay (NCI).
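1) Cells in 96-well plates. 2) Compound, 48 h, 5 concentrations. 3) Linear interpolation between surrounding doses. 4) Unreached endpoint = highest concentration. At the TGI there is no net growth.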

Tests used:
Experiment in all cases: growth of human tumour cells (NCI), 48 h
[1] = system: UO-31 renal
[2] = system: SK-MEL-28 melanoma
[3] = system: SK-MEL-5 melanoma
[4] = system: PC-3 prostate
[5] = system: UACC-257 melanoma
[6] = system: LOX IMVI melanoma
[7] = system: HL-60(TB) leukemia
[8] = system: K-562 leukemia
[9] = system: OVCAR-8 ovarian
[10] = system: SF-295 CNS
[11] = system: SK-OV-3 ovarian
[12] = system: SR leukemia
[13] = system: HS 578T breast
[14] = system: CAKI-1 renal
[15] = system: RPMI-8226 leukemia
[16] = system: SK-MEL-2 melanoma
[17] = system: RXF 393 renal
[18] = system: SNB-75 CNS
[19] = system: HT29 colon
[20] = system: MDA-MB-435
[21] = system: HCT-15 colon
[22] = system: SNB-19 CNS
[23] = system: BT-549 breast
[24] = system: ACHN renal
[25] = system: NCI-H226 lung
[26] = system: HOP-62 NSCLC
[27] = system: HCT-116 colon
[28] = system: OVCAR-4 ovarian
[29] = system: MOLT-4 leukemia
[30] = system: DU-145 prostate
[31] = system: EKVX NSCLC
[32] = system: MDA-N
[33] = system: UACC-62 melanoma
[34] = system: MCF7 breast
[35] = system: SW-620 colon
[36] = system: KM12 colon
[37] = system: SF-539 CNS
[38] = system: T-47D breast
[39] = system: A549 NSCLC
[40] = system: HOP-92 NSCLC
[41] = system: A498 renal
[42] = system: CCRF-CEM leukemia
[43] = system: NCI-H460 lung
[44] = system: SN12C renal
[45] = system: NCI/ADR-RES ovarian
[46] = system: IGROV1 ovarian
[47] = system: OVCAR-5 ovarian
[48] = system: U251 CNS
[49] = system: TK-10 renal
[50] = system: OVCAR-3 ovarian
[51] = system: MDA-MB-231 breast

Measured: TGI

CC(=S)NC1C(Oc2ccc3c(C)cc(=O)oc3c2)OC(CO)C(O)C1O (stereo unspecified)
> 100 µM: all assays above
